Like-named read-outs stand apart in the source and are kept apart here.
Key:
[1] = system: AEA cellular uptake, U937 cells; test: [3H]-AEA cellular uptake inhibition in U937 cells; type: cell-based; conditions: for IC50: U937 cells
Protocol: [^3H]-AEA Cellular Uptake
Screening for AEA cellular uptake inhibition was performed in a semi-automated procedure: Pipetting and washing steps were performed by a Biomek3000 laboratory workstation. First, required amounts of U937 cells were centrifuged at 100×g for 5 min and resuspended in RPMI (37° C.) to a final concentration of 2×10^6 cells/mL. Then, 250 μL of cell suspension (0.5×10^6 cells per sample) were transferred into AquaSil™ silanized glass vials (Chromacol 1.1-MTV) in 96-well format. After addition of 5 μL vehicle (DMSO) or compounds the cells were incubated at 37° C. for 15 min. As positive controls OMDM-2 and UCM707 were used at 10 μM in each run. The ETI-T compounds were measured at up to 7 concentrations in triplicates from 100 pM-100 μM. After pre-incubation, a mixture of 0.5 nM[ethanolamine-1-^3H]-AEA, (60 Ci/mmol) and 99.5 nM of cold AEA (final 100 nM) was added and samples were incubated at 37° C. for another 15 min. The reaction was stopped by rapid filtration over UniFilter-96 GF/C filters (PerkinElmer) pre-soaked with PBS 0.25% BSA. Cells were washed three times with 100 μL ice-cold PBS buffer containing 1% fatty acid free BSA. After drying, 45 μL MicroScint 20 scintillation cocktail (PerkinElmer, Waltham, Mass., US) was added to the wells and the plate was sealed. Radioactivity was measured by liquid scintillation counting on a PerkinElmer Wallac Trilux MicroBeta 1450 during 2 min. Non-specific binding of [^3H]AEA (100 nM) to the glass vials was never higher than 10%. IC50 values were calculated by GraphPad® by non-linear regression using the built-in log(inhibitor) vs. response-variable slope (four parameters) function.
(§1) Statistical analysis and IC50 values were determined using GraphPad® Prism 5.0 (GraphPad® Software, San Diego, Calif., US). Inhibition curves were obtained by non-linear regression using the built-in log(inhibitor) vs. response-variable slope (four parameters) function. Results were calculated as % of vehicle control of the corresponding fraction (cells, aqueous phase) if not mentioned else. In vivo results are shown in absolute values and were analyzed by a one-way ANOVA following a Tukey's multiple comparison test or student's t-test. If not indicated else the results were compared vs. vehicle (CTRL). *** P<0.001, ** P<0.01, * P<0.05, ns=not significant P>0.05.

[2] = molecular target: hCB1 receptor (Homo sapiens (Human), UniProt P21554); test: Radioligand CB receptor binding, [3H]-CP55,940 displacement on CHO-K1 hCB1 membranes; conditions: for CB1 receptor binding (%) at 10 µM: Table 4; for CB1 receptor binding % binding at 10 μM: Table 3
Sequence of hCB1 receptor (P21554 whole entry): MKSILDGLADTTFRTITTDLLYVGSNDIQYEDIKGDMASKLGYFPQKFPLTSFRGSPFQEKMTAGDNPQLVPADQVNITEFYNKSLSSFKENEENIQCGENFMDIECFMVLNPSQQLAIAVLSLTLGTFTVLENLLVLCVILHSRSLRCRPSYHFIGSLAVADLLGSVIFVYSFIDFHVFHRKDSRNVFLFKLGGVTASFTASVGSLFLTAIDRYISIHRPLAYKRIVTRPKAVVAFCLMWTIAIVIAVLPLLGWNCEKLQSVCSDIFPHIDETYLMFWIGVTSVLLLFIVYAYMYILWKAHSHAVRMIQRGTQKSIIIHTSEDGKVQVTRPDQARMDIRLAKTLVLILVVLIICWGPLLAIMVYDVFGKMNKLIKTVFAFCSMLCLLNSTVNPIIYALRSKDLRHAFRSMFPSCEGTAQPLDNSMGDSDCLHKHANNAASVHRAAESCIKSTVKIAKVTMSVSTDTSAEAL
Protocol: Stably transfected CHO-K1 cells expressing hCB1 or hCB2 receptors (Gertsch et al., 2008, Proc Natl Acad Sci 105, 9099-104) were cultured in T150 cm^2 flasks up to 90% confluence. The medium was removed and cells were washed twice with PBS, 37° C. 10 mL of PBS was added and the cells were scraped and transferred into a falcon tube following homogenization by a Polytron PT1300D for 5 min at 30 krpm. Then, the homogenate was centrifuged (1400×g, 5 min) to remove debris. The supernatant was subjected to ultracentrifugation (64000×g, 45 min, 4° C.) to separate cytosolic from the membrane fraction. The supernatant was discharged and the pellet resuspended in PBS by sonication. Protein quantity was determined by BCA assay (Thermo Scientific) and aliquots of 500 μL were stored at −80° C. until use.
Radioligand CB Receptor Binding
Binding properties of ETI-T compounds to hCB1 or hCB2 receptors were performed as previously reported in a [^3H]-CP55,940 displacement assay (Gertsch et al., 2008, Proc Natl Acad Sci 105, 9099-104). WIN 55,212-2 was used as positive control. In brief, 20 μg protein of CHO-K1 hCB1 or hCB2 membrane preparations were thawed on ice and resuspended in a final volume of 500 μL binding buffer (50 mM Tris-HCl, 2.5 mM EDTA, 5 mM MgCl2, 0.5% fatty acid free BSA, pH 7.4) in silanized glass vials. [^3H]-CP55,940 (168 Ci/mmol) (PerkinElmer, Waltham, Mass., US) was added to a final concentration of 0.5 nM followed by the addition of competitors or vehicle in 5 μL DMSO. Membrane binding was equilibrated for 2 h at room temperature (25° C.). Samples were filter through a 0.1% polyethylenimine pre-soaked UniFilter®-96 GF/B plate (PerkinElmer) and washed twelve times with 167 μL ice-cold assay-buffer. The plate was dried, bottom sealed and 45 μL MicroScint 20 scintillation cocktail (PerkinElmer) were added before measured on a PerkinElmer 1450 Microbeta TRILUX liquid scintillation counter. Unspecific binding was determined by WIN 55,212-2, 10 μM and subtracted from all values. […].

[3] = molecular target: FAAH (Homo sapiens (Human), UniProt O00519); test: FAAH activity: hydrolysis of [3H]-AEA in U937 cell homogenates; type: biochemical; conditions: for IC50: U937 cell homogenate, read-out: FAAH inhibition IC50
Sequence of FAAH (O00519 whole entry): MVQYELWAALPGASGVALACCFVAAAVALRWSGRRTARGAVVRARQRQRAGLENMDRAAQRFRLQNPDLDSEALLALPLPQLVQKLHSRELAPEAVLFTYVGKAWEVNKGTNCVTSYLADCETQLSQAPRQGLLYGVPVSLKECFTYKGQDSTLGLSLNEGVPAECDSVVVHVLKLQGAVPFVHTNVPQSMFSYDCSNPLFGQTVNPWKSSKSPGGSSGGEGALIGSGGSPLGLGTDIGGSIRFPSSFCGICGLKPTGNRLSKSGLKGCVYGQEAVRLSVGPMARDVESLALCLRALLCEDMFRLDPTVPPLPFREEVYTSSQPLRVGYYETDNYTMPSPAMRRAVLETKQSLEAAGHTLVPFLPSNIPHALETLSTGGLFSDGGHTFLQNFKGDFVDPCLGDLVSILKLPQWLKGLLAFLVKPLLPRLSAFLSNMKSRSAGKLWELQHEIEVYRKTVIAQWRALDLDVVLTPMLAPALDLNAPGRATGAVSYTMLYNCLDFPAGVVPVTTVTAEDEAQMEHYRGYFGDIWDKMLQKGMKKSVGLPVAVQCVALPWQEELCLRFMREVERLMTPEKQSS
Protocol: Hydrolysis of [^3H]-AEA by FAAH was determined as previously described in cell homogenates of U937 cells (0.18 mg protein) (Omeir et al., 1999, Biochem Biophys Res Commun, 264, 316-20; Mor et al., 2004, J Med Chem, 47, 4998-5008). Protein amounts of cell homogenates corresponded to 0.5×10^6 cells (U937), to assure best possible comparability of IC50 values as used for the AEA cellular uptake assays. URB597 was used as positive control. Protein quantification was performed using a BCA assay (Thermo Scientific). Enzyme activity was assessed by addition of vehicle or compounds in 10 μL DMSO to 490 μL homogenate in 10 mM Tris HCl, 1 mM EDTA, 0.1% (w/v) BSA fatty acid free, pH=8 and incubation for 15 min at 37° C. After, a mixture of AEA plus [ethanolamine-1-^3H]-AEA (0.5 nM) at final 100 nM was added to the homogenates and incubated for 15 min at 37° C. The reaction was stopped by addition of 1 mL ice-cold CHCl3:MeOH (1:1) followed by vigorous vortexing. Phase separation was achieved by centrifugation at 10′000×g at 4° C. for 10 min. Radioactivity of the separated aqueous phase (upper phase) containing [^3H-ethanolamine] or [^3H-glycerol] was measured by liquid scintillation counting on a Tri-Carb 2100 TR liquid scintillation analyzer after addition of 3.5 mL Ultima Gold scintillation cocktail (PerkinElmer Life Sciences). Results are expressed as hydrolysis of tritium substrate in percent of vehicle treated control. IC50 values were calculated by GraphPad®. Data are reported as means of n=3 independent experiments performed in triplicates.
as §1

[4] = Homo sapiens, U-937, Table 1, 100 nM AEA, read-out: AEA uptake inhibition IC50
[5] = Homo sapiens, U-937, Table 4, read-out: AEA uptake IC50

Row | IC50 [1, 4] [nM] | IC50 [1, 5] [nM] | CB1 receptor binding (%) at 10 µM [2] [%] | SMILES | further results
1 |  | 1460 | 60 | CCCN1C(=O)/C(=C/c2ccc3c(c2)OCO3)S/C1=N\c1ccc(OC)cc1 [ETI-T-426] | 
2 |  | 1300 |  | CCOc1cc(/C=C2\S/C(=N\c3ccccc3)N(CCOC)C2=O)ccc1O [ETI-T-410] | 
3 |  | 1080 | 40 | CN(C)c1ccc(/C=C2\S/C(=N\c3ccccc3)N(C3CCCCC3)C2=O)cc1 [ETI-T-385] | IC50 ([3]; Table 4): 985 nM
4 | 899 | 899 | 34 | C/C=C/c1cc(/C=C2\S/C(=N\c3ccccc3)N(CCOC)C2=O)cc(OCC)c1O [Compound 22] | IC50 ([3]; Table 4): > 100000 nM
5 | 798 | 798 | 45 | Cc1ccc(/N=C2\S/C(=C\c3ccc(O)c(Cl)c3)C(=O)N2c2ccc(C)c(Cl)c2)cc1Cl [Compound 21] | IC50 ([3]; Table 4): 58900 nM
6 |  | 1320 | 41 | C=CCc1cc(/C=C2/S/C(=N/c3ccc(C)cc3)N(C)C2=O)cc(OCC)c1O [ETI-T-399] | 
7 |  | 1350 |  | CCOc1cc(/C=C2/S/C(=N/c3ccc(F)cc3)N(c3ccc(F)cc3)C2=O)ccc1O [ETI-T-438] | 
8 |  | 1250 |  | COc1cc(/C=C2\S/C(=N\c3ccc(C)cc3)N(c3ccc(C)cc3)C2=O)ccc1O [ETI-T-008 Jspg] | IC50 ([3]; Table 4): 5370 nM
9 |  | 1580 | 42 | CCCCN1C(=O)/C(=C/c2cc(Br)c(O)c(OCC)c2)S/C1=N\c1ccccc1 [ETI-T-401] | 
10 |  | 1430 |  | CCOc1cc(/C=C2/S/C(=N\c3ccc(C)c(Cl)c3)N(c3ccc(C)c(Cl)c3)C2=O)ccc1O [ETI-T-435] | 
11 |  | 1050 |  | CCOc1cc(/C=C2/S/C(=N/c3ccc(OC)cc3)N(c3ccc(OC)cc3)C2=O)ccc1O [ETI-T-445] | 
12 |  | 1590 |  | COc1ccc(C=C2SC(=Nc3ccc(F)cc3)N(c3ccc(F)cc3)C2=O)cc1OC [ETI-T-343] | 
13 |  | 1150 |  | Cc1ccc(/N=C2\S/C(=C\c3ccc(O)c(Cl)c3)C(=O)N2c2ccc(C)cc2)cc1 [ETI-T-444] | 

Continued, compound first:

Row | SMILES | IC50 [1, 4] [nM] | IC50 [1, 5] [nM] | CB1 receptor binding (%) at 10 µM [2] [%] | further results
14 | CCCOc1cc(/C=C2\S/C(=N\c3ccccc3C)N(c3ccccc3C)C2=O)ccc1O [Compound 15] | 553 | 553 |  | 
15 | COc1ccc(/C=C2\S/C(=N\c3ccccc3)N(c3ccccc3)C2=O)cc1 [Compound 14] | 542 | 542 |  | 
16 | C=CCc1cc(/C=C2\S/C(=N\c3ccccc3)N(Cc3ccco3)C2=O)cc(OC)c1O [Compound 20] | 661 | 661 |  | 
17 | Cc1ccsc1/C=C1\S/C(=N\c2ccccc2)N(C(C)C)C1=O [Compound 13] | 510 | 510 |  | 
18 | C=CCc1cc(/C=C2\S/C(=N\c3ccc(C(=O)OC)cc3)N(C)C2=O)cc(OCC)c1O [Compound 16] | 571 | 571 | 15 | IC50 ([3]; Table 2): > 100000 nM; CB1 receptor binding % binding at 10 μM [2]: 15%
19 | C=CCCc1cc(/C=C2\SC(=NCC)N(CC)C2=O)cc(OCC)c1O [Compound 4] | 145 | 145 |  | 
20 | O=C1/C(=C/c2ccc(O)cc2)S/C(=N\c2ccccc2)N1Cc1ccco1 [Compound 11] | 434 | 434 |  | 
21 | CCN1C(=O)/C(=C/c2ccc(O)cc2)S/C1=N\c1ccc(F)cc1 [Compound 8] | 268 | 268 |  | 
22 | CCOc1cc(/C=C2\S/C(=N\c3cc(Cl)ccc3C)NC2=O)ccc1O [Compound 3] |  |  |  | IC50 ([1]; Table 1, 100 nM AEA, read-out: AEA uptake inhibition IC50): 138 nM
23 | CCN1C(=O)/C(=C/c2cc(I)c(O)c(OC)c2)S/C1=N\c1ccccc1 [Compound 17] | 594 | 594 |  | 
24 | CCN1C(=O)/C(=C/c2ccc(C)cc2)S/C1=N\c1ccc(OC)cc1 [Compound 9] | 334 | 334 |  | 
25 | COc1ccc(/N=C2\S/C(=C\c3ccc(O)cc3)C(=O)N2c2ccc(OC)cc2)cc1 [Compound 18] | 597 | 597 |  | 
26 | CCOc1cc(/C=C2\S/C(=N\c3ccc(C)cc3)N(c3ccc(C)cc3)C2=O)ccc1O [Compound 12] | 484 | 484 | 35 | IC50 ([3]; Table 2): > 100000 nM; CB1 receptor binding % binding at 10 μM [2]: 35%
27 | C#CCOc1ccc(/C=C2\S/C(=N\c3ccc(OC)cc3)N(CCc3c[nH]c4ccccc34)C2=O)cc1 [Compound 7] | 266 | 266 |  | 
28 | Cc1ccc(/N=C2\S/C(=C\c3ccc(O)cc3)C(=O)N2c2ccc(C)cc2)cc1 [Compound 1] | 68 | 68 | 33 | 
29 | CCOc1cc(/C=C2\S/C(=N\c3ccc(F)cc3)N(c3ccc(F)cc3)C2=O)ccc1O [Compound 2] | 74 | 74 | 33 | FAAH inhibition (in words) [3]: Lack of FAAH inhibition; IC50 ([3]; Table 2): 56200 nM; IC50 ([3]; Table 4): 56200 nM; apparent selectivity for AEA uptake inhibition over FAAH inhibition ([1]; ratio of FAAH IC50 to AEA uptake IC50): ~760 fold; CB1 receptor binding % binding at 10 μM [2]: 33%
30 | CCCN1C(=O)/C(=C/c2ccc(N(C)C)cc2)S/C1=N\c1ccccc1 [Compound 10] | 355 | 355 | 29 | IC50 ([3]; Table 4): 1050 nM
31 | COc1ccc(/C=C2\S/C(=N\c3ccc(C)cc3)N(c3ccc(C)cc3)C2=O)cc1 [Compound 19] | 602 | 602 |  | 
